Laboratory results published in ChEMBL document CHEMBL1141054, “Analogs of a potent maxi-K potassium channel opener with an improved inhibitory profile toward cytochrome P450 isozymes” (Bioorg Med Chem Lett, 2005).
Values belong to the compound of their own block, whether it stands above or below them.

Legend:
Cytochrome P450 1A2 = molecular target: T1, Cytochrome P450 1A2 (Homo sapiens, UniProt P05177); test: Inhibition against Cytochrome P450 1A2 prepared from baculovirus-infected insect cells using 3-cyano-7-ethoxycoumarin; type: ADME
T1 sequence (P05177 whole entry): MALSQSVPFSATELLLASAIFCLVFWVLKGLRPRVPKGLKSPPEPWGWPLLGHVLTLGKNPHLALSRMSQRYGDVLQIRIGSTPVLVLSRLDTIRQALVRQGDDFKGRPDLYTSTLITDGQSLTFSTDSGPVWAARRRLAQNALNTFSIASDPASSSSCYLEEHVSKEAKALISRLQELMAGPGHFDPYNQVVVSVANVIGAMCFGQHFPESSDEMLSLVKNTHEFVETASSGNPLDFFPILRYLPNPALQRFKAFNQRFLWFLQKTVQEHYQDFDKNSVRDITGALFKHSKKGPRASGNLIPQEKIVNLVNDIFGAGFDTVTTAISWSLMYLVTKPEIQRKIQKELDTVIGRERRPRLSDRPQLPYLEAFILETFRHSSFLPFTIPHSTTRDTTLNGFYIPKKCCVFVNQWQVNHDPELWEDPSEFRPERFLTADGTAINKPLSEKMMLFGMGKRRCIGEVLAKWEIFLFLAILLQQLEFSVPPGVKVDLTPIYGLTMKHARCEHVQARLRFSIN

Cytochrome P450 2C9 [1] = molecular target: T2, Cytochrome P450 2C9 (Homo sapiens, UniProt P11712); test: Inhibition against Cytochrome P450 2C9 prepared from baculovirus-infected insect cells using 7-methoxy-4-trifluoromethylcoumarin; type: ADME
Cytochrome P450 3A4 [2] = molecular target: T3, Cytochrome P450 3A4 (Homo sapiens, UniProt P08684); test: Inhibition against Cytochrome P450 3A4 prepared from baculovirus-infected insect cells using 7-benzyloxy- 4-trifluoromethylcoumarin; type: ADME
Cytochrome P450 2C19 = Cytochrome P450 2C19 (Homo sapiens, UniProt P33261); test: Inhibition against Cytochrome P450 2C19 prepared from baculovirus-infected insect cells using 3-cyano-7-ethoxycoumarin; type: ADME
Cytochrome P450 3A4 [3] = molecular target: T3, Cytochrome P450 3A4; test: Inhibition against Cytochrome P450 3A4 prepared from baculovirus-infected insect cells using resorufin benzyl ether; type: ADME
Cytochrome P450 2D6 [4] = molecular target: T4, Cytochrome P450 2D6 (Homo sapiens, UniProt P10635); test: Inhibition against Cytochrome P450 2D6 prepared from baculovirus-infected insect cells using 3-[2-(N,N-diethyl-N-methylamino)ethyl]-7- methoxy-4-methylcoumarin; type: ADME
[5] = Percent increase of potassium current mediated by large conductance calcium-activated channel expressed in Xenopus laevis oocytes at 20 uM; type: functional, Homo sapiens, Oocyte
Cytochrome P450 2C9 [6] = molecular target: T2, Cytochrome P450 2C9; test: Inhibitory activity against Cytochrome P450 2C9; type: ADME
Cytochrome P450 3A4 [7] = molecular target: T3, Cytochrome P450 3A4; test: Inhibition against Cytochrome P450 3A4 prepared from baculovirus-infected insect cells using 7-benzyloxy-4-trifluoromethylcoumarin; type: ADME
Cytochrome P450 2C9 [8] = molecular target: T2, Cytochrome P450 2C9; test: Inhibition against Cytochrome P450 2C9; type: ADME
Cytochrome P450 2D6 [9] = molecular target: T4, Cytochrome P450 2D6; test: Inhibition against Cytochrome P450 2D6 prepared from baculovirus-infected insect cells using 3-[2-(N,N-diethyl-N-methylamino)ethyl]-7-methoxy-4-methylcoumarin; type: ADME
Cytochrome P450 3A4 [10] = molecular target: T3, Cytochrome P450 3A4; test: Inhibition against Cytochrome P450 3A4 prepared from baculovirus-infected insect cells using resorufin benzylether; type: ADME

Chain of Cytochrome P450 2C19 (P33261 whole entry): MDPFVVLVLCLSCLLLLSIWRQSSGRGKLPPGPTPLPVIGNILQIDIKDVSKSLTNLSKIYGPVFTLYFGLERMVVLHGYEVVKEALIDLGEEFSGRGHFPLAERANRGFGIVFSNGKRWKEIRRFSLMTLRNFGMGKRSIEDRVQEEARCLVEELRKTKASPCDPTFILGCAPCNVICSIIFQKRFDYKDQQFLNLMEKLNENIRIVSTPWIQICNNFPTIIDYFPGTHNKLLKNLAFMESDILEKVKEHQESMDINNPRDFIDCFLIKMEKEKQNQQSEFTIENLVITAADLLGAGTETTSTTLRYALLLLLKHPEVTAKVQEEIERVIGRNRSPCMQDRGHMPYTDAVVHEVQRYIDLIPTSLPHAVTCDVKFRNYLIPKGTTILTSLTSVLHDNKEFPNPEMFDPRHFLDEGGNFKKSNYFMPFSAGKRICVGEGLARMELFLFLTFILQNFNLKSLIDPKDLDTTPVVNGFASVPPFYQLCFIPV
T4 sequence (P10635 whole entry): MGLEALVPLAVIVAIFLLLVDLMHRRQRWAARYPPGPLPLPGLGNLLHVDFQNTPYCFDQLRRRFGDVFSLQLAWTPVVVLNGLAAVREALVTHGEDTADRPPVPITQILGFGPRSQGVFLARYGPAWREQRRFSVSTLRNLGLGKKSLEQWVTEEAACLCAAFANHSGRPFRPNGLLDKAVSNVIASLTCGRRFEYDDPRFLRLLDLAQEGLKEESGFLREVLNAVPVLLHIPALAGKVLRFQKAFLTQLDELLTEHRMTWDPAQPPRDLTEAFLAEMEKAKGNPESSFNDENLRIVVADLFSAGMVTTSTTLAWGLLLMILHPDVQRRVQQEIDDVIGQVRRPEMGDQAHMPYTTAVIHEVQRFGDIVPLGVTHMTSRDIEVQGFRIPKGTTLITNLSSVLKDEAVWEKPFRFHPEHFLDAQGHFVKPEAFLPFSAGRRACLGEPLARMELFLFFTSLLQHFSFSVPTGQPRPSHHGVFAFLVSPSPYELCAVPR
T2 sequence (P11712 whole entry): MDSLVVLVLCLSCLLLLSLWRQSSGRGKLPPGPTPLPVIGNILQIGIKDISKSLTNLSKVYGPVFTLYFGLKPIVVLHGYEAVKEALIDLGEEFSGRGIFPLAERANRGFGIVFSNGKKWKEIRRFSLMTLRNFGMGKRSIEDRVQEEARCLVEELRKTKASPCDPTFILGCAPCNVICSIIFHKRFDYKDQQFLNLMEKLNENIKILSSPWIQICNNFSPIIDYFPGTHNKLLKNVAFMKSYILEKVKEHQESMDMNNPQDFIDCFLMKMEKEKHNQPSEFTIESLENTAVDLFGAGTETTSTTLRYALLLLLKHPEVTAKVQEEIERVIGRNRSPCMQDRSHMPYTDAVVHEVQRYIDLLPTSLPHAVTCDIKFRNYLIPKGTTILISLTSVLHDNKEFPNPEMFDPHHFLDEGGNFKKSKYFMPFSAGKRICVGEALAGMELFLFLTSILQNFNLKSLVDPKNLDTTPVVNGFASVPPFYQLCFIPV
T3 sequence (P08684 whole entry): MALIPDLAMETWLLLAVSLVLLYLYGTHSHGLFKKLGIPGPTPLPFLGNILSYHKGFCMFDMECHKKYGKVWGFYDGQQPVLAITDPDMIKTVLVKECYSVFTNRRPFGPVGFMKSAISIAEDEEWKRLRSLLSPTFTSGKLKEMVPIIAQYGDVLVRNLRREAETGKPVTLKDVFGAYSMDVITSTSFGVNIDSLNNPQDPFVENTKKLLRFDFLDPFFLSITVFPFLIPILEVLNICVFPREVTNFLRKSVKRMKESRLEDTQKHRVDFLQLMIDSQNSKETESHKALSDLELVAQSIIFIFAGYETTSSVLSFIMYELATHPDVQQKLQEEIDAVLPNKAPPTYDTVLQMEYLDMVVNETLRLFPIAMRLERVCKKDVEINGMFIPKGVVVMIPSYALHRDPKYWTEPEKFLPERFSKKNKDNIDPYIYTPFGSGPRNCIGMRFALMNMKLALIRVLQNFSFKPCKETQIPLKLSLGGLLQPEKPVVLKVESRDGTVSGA

IC50 (Cytochrome P450 1A2): > 100 µM | IC50 (Cytochrome P450 2C9 [1]): 16 µM | IC50 (Cytochrome P450 3A4 [2]): 26 µM | IC50 (Cytochrome P450 2C19): 8.2 µM | IC50 (Cytochrome P450 3A4 [3]): 50 µM | IC50 (Cytochrome P450 2D6 [4]): > 100 µM
Structure (SMILES): NC(=O)Cn1c(=O)c(CCO)c(-c2cc(Cl)ccc2O)c2cc(C(F)(F)F)ccc21
Increase [5]: 262.5%

IC50 (Cytochrome P450 2C9 [6]): 5.47 µM
Structure (SMILES): COc1ccc(Cl)cc1-c1c(CCO)c(O)nc2ccc(C(F)(F)F)cc12
Increase [5]: 211.2%

IC50 (Cytochrome P450 2C9 [6]): 12.4 µM
Structure (SMILES): O=C1Cc2c(c3cc(C(F)(F)F)ccc3[nH]c2=O)-c2cc(Cl)ccc2O1

Structure (SMILES): N=C(N)Cn1c(=O)c(CCO)c(-c2cc(Cl)ccc2O)c2cc(C(F)(F)F)ccc21
Increase [5]: 105.8%

IC50 (Cytochrome P450 1A2): > 40 µM | IC50 (Cytochrome P450 2C9 [1]): 3.9 µM | IC50 (Cytochrome P450 3A4 [2]): 13 µM | IC50 (Cytochrome P450 2C19): 24 µM | IC50 (Cytochrome P450 3A4 [3]): 18 µM | IC50 (Cytochrome P450 2D6 [4]): 23 µM
Structure (SMILES): N#CCn1c(=O)c(CCO)c(-c2cc(Cl)ccc2O)c2cc(C(F)(F)F)ccc21
Increase [5]: 236.6%

Structure (SMILES): N#CCOc1ccc(Cl)cc1-c1c(CCO)c(O)nc2ccc(C(F)(F)F)cc12
Increase [5]: 148.9%

Structure (SMILES): NC(=O)COc1ccc(Cl)cc1-c1c(CCO)c(O)nc2ccc(C(F)(F)F)cc12
Increase [5]: 124%

IC50 (Cytochrome P450 2C9 [6]): 37.7 µM
Structure (SMILES): CCN(CC)C[C@H](O)CSc1c(-c2cc(Cl)ccc2O)c2cc(C(F)(F)F)ccc2[nH]c1=O

IC50 (Cytochrome P450 2C9 [6]): 1.1 µM
Structure (SMILES): Cn1c(=O)c(CCO)c(-c2cc(Cl)ccc2O)c2cc(C(F)(F)F)ccc21
Increase [5]: 296.1%

Structure (SMILES): OCCc1c(O)nc2ccc(C(F)(F)F)cc2c1-c1cc(Cl)ccc1OCc1nn[nH]n1
Increase [5]: 111%

IC50 (Cytochrome P450 2C9 [6]): > 100 µM
Structure (SMILES): O=c1[nH]c2ccccc2c(Cc2ccccc2)c1-[n+]1ccccc1

IC50 (Cytochrome P450 3A4 [7]): 8.1 µM | IC50 (Cytochrome P450 1A2): 30 µM | IC50 (Cytochrome P450 2C9 [1]): 1.7 µM | IC50 (Cytochrome P450 2C9 [8]): 1700 nM | IC50 (Cytochrome P450 2D6 [9]): 35 µM | IC50 (Cytochrome P450 2C19): 5.2 µM | IC50 (Cytochrome P450 3A4 [10]): > 100 µM
Structure (SMILES): O=c1[nH]c2ccc(C(F)(F)F)cc2c(-c2cc(Cl)ccc2O)c1CCO [BMS-223131]
Increase [5]: 252.6%

IC50 (Cytochrome P450 1A2): > 100 µM | IC50 (Cytochrome P450 2C9 [1]): 19 µM | IC50 (Cytochrome P450 3A4 [2]): 30 µM | IC50 (Cytochrome P450 2C19): 12 µM | IC50 (Cytochrome P450 3A4 [3]): 13 µM | IC50 (Cytochrome P450 2D6 [4]): > 100 µM
Structure (SMILES): O=c1c(CCO)c(-c2cc(Cl)ccc2O)c2cc(C(F)(F)F)ccc2n1Cc1nn[nH]n1
Increase [5]: 205.8%

IC50 (Cytochrome P450 2C9 [6]): 19.5 µM
Structure (SMILES): CC(=O)CC1Oc2ccc(Cl)cc2-c2c1c(=O)[nH]c1ccc(C(F)(F)F)cc21 (stereo not drawn)

IC50 (Cytochrome P450 2C9 [6]): 50.7 µM
Structure (SMILES): CCN(CC)C[C@@H](O)CSc1c(-c2cc(Cl)ccc2O)c2cc(C(F)(F)F)ccc2[nH]c1=O

Structure (SMILES): N=C(N)COc1ccc(Cl)cc1-c1c(CCO)c(O)nc2ccc(C(F)(F)F)cc12
Increase [5]: 118.3%
